Measured values from ChEMBL document CHEMBL5729666, “Substituted [1,2,4]triazolo[4,3-a]pyrazines as modulators of sodium channel activity” (2023).
pIC50: −log10 of the molar value.

Molecular target: T1, Cytochrome P450 1A2 (Homo sapiens, UniProt P05177)
T1 sequence (P05177 whole entry): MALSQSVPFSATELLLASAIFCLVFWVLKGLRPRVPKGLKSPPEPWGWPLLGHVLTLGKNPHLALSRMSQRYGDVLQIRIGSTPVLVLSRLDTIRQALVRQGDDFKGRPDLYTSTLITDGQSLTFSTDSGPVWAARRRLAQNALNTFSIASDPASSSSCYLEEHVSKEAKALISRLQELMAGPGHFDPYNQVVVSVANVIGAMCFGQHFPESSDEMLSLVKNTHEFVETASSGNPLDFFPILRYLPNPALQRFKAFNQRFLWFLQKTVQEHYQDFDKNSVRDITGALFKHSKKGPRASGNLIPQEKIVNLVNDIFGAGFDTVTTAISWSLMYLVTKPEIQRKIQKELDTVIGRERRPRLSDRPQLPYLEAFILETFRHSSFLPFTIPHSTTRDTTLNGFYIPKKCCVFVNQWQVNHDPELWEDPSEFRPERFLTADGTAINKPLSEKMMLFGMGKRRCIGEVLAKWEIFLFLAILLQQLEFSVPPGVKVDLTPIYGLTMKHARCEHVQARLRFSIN
Assay: CYP1A2 Inhibition Assay: CYP1A2 Inhibition in Human Liver Microsomes. Pooled human liver microsomes were incubated with individual CYP, CYP1A2, isozyme-specific marker substrate (Phenacetin) in the presence of test compound at various concentrations (0.05, 0.15, 0.5, 1.5, 5, 15, 50 uM). The specific marker metabolites are measured with LC/MS/MS. The remaining enzymatic activities and inhibitory potency IC50 are determined. Procedure: Microsomes are removed out of the −80° C. freezer to thaw on ice and 20 μL of the substrates solution added to the corresponding wells. Then 20 μL PB was added to blank wells and 2 μL of the test compounds and positive control working solution added to the corresponding wells. 2 μL of solvent was added to No Inhibitor wells and Blank wells. Then 158 μL of the HLM working solution was added to all wells of the incubation plate. The plate was pre-warmed for about 10 min using a 37° C. water bath. Then 20 μL of the NADPH cofactor solution was added to all incubation wells, mixed and incubated for 10 minutes at 37° C. water bath. The reaction is terminated by adding 400 μL cold stop solution (200 ng/mL Tolbutamide and 200 ng/mL Labetalol in ACN). The samples were centrifuged at 4000 rpm for 20 minutes to precipitate protein. Finally 200 μL of the supernatant was transferred to 100 μL HPLC water, shaken for 10 min and analyzed by LC/MS/MS.

SMILES	IC50	pIC50
O=C(NNc1cnc(-c2ccc(OC(F)(F)F)cc2)cn1)C1(F)CC1	in the range around 8 µM	–
FC(F)(F)Oc1ccc(-c2ccc3nnc(C(F)(F)Cl)n3n2)cc1	–	> 6.00
